# Experimental data reported in PMC4684245, “Diversity of ABBA Prenyltransferases in Marine Streptomyces sp. CNQ-509: Promiscuous Enzymes for the Biosynthesis of Mixed Terpenoid Compounds” (PLoS ONE, 2015).
# Tests used:
# Experiment in all cases: HPLC-UV and LC-MS product detection
# Assay type in all cases: biochemical
# CnqP6 = target: T1, CnqP6 (Streptomyces sp. CNQ-509, UniProt A0A0F7N6A5); settings: […] °C, […] h
# T1 construct: gene AA958_12635; full-length, 300 aa; N-terminal His8 tag (pHis8) kept; E. coli Rosetta2(DE3)pLysS
# T1 sequence (A0A0F7N6A5 1-300): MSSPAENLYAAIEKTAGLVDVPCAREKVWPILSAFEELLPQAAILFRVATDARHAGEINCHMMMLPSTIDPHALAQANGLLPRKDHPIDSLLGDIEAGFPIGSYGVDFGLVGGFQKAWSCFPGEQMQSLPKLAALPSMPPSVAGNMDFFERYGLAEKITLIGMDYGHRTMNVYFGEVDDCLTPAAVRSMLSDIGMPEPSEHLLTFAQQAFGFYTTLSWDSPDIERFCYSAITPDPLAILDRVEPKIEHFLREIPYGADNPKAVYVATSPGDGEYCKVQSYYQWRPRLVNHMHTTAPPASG
# CnqP4 = target: T2, CnqP4 (Streptomyces sp. CNQ-509, UniProt A0A0F7NDN9); settings: […] aromatic substrate, […] GPP, […] MgCl2, Tris-HCl pH […] °C, […] h
# T2 construct: gene AA958_24270; full-length, 303 aa; N-terminal His8 tag (pHis8) kept; E. coli Rosetta2(DE3)pLysS
# T2 sequence (A0A0F7NDN9 1-303): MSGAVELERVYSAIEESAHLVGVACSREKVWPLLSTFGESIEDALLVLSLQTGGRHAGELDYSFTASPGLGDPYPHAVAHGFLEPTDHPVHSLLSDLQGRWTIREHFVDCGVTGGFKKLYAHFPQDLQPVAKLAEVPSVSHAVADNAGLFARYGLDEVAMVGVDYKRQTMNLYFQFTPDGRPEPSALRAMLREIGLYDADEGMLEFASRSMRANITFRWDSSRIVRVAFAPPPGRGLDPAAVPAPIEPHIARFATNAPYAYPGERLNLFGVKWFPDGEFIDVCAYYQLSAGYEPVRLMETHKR
# CnqP3 = target: T3, CnqP3 (Streptomyces sp. CNQ-509, UniProt A0A0F7NDP3); settings: […] °C, […] h
# T3 construct: gene AA958_24325; full-length, 305 aa; N-terminal His8 tag (pHis8) kept; E. coli Rosetta2(DE3)pLysS
# T3 sequence (A0A0F7NDP3 1-305): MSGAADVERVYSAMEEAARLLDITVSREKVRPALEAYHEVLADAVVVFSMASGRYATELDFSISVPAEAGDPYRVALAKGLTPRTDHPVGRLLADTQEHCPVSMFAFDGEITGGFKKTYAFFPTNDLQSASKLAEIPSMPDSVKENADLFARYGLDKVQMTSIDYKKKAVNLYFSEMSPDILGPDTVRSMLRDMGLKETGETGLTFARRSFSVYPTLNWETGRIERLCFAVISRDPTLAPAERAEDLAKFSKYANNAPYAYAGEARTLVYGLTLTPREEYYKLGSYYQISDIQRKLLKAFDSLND
# [1] = […] aromatic substrate, […] GPP, […] MgCl2, Tris-HCl pH […]
smiles,measurement,setting,value
O=c1c(-c2ccc(O)cc2)coc2cc(O)cc(O)c12 [genistein],HPLC-UV and LC-MS product detection,CnqP6; [1],"genistein was converted with GPP by the prenyltransferases CnqP2, CnqP3 and CnqP6"
"Oc1ccc2ccc(O)cc2c1 [2,7-DHN]",HPLC-UV and LC-MS product detection,CnqP4,"we found monogeranylated products for CnqP2, CnqP3 and CnqP4"
O=C1C(O)=CC(=O)c2c(O)cc(O)cc21 [flaviolin],HPLC-UV and LC-MS product detection,CnqP3; [1],Only CnqP3 accepted flaviolin as a substrate.
CC(C)=CCC/C(C)=C/COP(=O)(O)OP(=O)(O)O [GPP],HPLC-UV and LC-MS product detection,"CnqP3; with flaviolin ([…]), […] GPP, […] MgCl2, Tris-HCl pH […]",Incubation with GPP resulted in the production of a new compound
same,HPLC-UV and LC-MS product detection,"CnqP6; with genistein ([…]), […] GPP, […] MgCl2, Tris-HCl pH […]","genistein was converted with GPP by the prenyltransferases CnqP2, CnqP3 and CnqP6"
